In ChEMBL document CHEMBL3885861, “Open TG-GATES”:

Species: Rattus norvegicus
Experiment: Open TG-GATES - Regimen: Single
Assay type: toxicity, organism-based, Sprague-Dawley
Parameters: regimen Single, gender Male, age 6 weeks
Settings: in vivo, po, 0 mg/kg, route gavage, dose level Control; for APTT / Bas / Eos / Fbg / Hb / Ht / Lym / MCH / MCHC / MCV / Mono / Neu / PT / Plat / RBC / Ret / WBC: tissue Blood; for KIDNEY_L / KIDNEY_R / KIDNEY_TOTAL: tissue Kidney; for LIVER: tissue Liver; for ALP / ALT / AST / BUN / CRE / Ca / Cl / DBIL / GLC / IP / K / LDH / Na / PL / RALB / TBIL / TC / TG / TP / gamma-GTP: tissue Plasma

SMILES: COC(=O)C1=C(C)NC(C)=C(C(=O)OC)C1c1ccccc1[N+](=O)[O-] [NIFEDIPINE]
- TERMINAL_BW (3 h): 197.5 g
- APTT (3 h): 16.4 s
- Bas (3 h): 0.2%
- Eos (3 h): 0.8%
- Fbg (3 h): 271 mg/dL
- Hb (3 h): 13.3 g/dL
- Ht (3 h): 41.5%
- Lym (3 h): 74.2%
- MCH (3 h): 20.8 pg
- MCHC (3 h): 32.1%
- MCV (3 h): 64.8 fL
- Mono (3 h): 2.6%
- Neu (3 h): 21.2%
- PT (3 h): 14.8 s
- Plat (3 h): 120 x10_4/uL
- RBC (3 h): 641.4 x10_4/ul
- Ret (3 h): 8.7%
- WBC (3 h): 85.8 x10_2/uL
- KIDNEY_L (3 h): 0.9 g
- KIDNEY_R (3 h): 0.9 g
- KIDNEY_TOTAL (3 h): 1.8 g
- LIVER (3 h): 8.4 g
- ALP (3 h): 1457.4 IU/L
- ALT (3 h): 49.6 IU/L
- AST (3 h): 81.8 IU/L
- BUN (3 h): 9.4 mg/dL
- CRE (3 h): 0.2 mg/dL
- Ca (3 h): 10.6 mg/dL
- Cl (3 h): 105.6 meq/L
- DBIL (3 h): 0.012 mg/dL
- GLC (3 h): 178.4 mg/dL
- IP (3 h): 9.6 mg/dL
- K (3 h): 4.4 meq/L
- LDH (3 h): 90.8 IU/L
- Na (3 h): 142 meq/L
- PL (3 h): 128.2 mg/dL
- RALB (3 h): 2.5 g/dL
- TBIL (3 h): 0.044 mg/dL
- TC (3 h): 70.2 mg/dL
- TG (3 h): 42.4 mg/dL
- TP (3 h): 5.2 g/dL
- gamma-GTP (3 h): 1 IU/L
- TERMINAL_BW (6 h): 197 g
- APTT (6 h): 16.6 s
- Bas (6 h): 0.2%
- Eos (6 h): 1%
- Fbg (6 h): 298 mg/dL
- Hb (6 h): 13.5 g/dL
- Ht (6 h): 42.2%
- Lym (6 h): 71.2%
- MCH (6 h): 21.1 pg
- MCHC (6 h): 32%
- MCV (6 h): 65.8 fL
- Mono (6 h): 3.2%
- Neu (6 h): 23.6%
- PT (6 h): 15 s
- Plat (6 h): 127.7 x10_4/uL
- RBC (6 h): 641.2 x10_4/ul
- Ret (6 h): 8.8%
- WBC (6 h): 94.9 x10_2/uL
- KIDNEY_L (6 h): 0.9 g
- KIDNEY_R (6 h): 0.9 g
- KIDNEY_TOTAL (6 h): 1.7 g
- LIVER (6 h): 8.2 g
- ALP (6 h): 1485.2 IU/L
- ALT (6 h): 43.4 IU/L
- AST (6 h): 71 IU/L
- BUN (6 h): 9 mg/dL
- CRE (6 h): 0.2 mg/dL
- Cl (6 h): 107.4 meq/L
- DBIL (6 h): 0.008 mg/dL
- GLC (6 h): 177.8 mg/dL
- IP (6 h): 9.7 mg/dL
- K (6 h): 4.2 meq/L
- LDH (6 h): 70.4 IU/L
- Na (6 h): 144 meq/L
- PL (6 h): 139.8 mg/dL
- RALB (6 h): 2.5 g/dL
- TBIL (6 h): 0.036 mg/dL
- TC (6 h): 78.8 mg/dL
- TG (6 h): 56 mg/dL
- TP (6 h): 5.4 g/dL
- gamma-GTP (6 h): 1 IU/L
- TERMINAL_BW (9 h): 193.8 g
- APTT (9 h): 16 s
- Bas (9 h): 0%
- Eos (9 h): 1%
- Fbg (9 h): 297 mg/dL
- Hb (9 h): 13.1 g/dL
- Ht (9 h): 40.6%
- Lym (9 h): 80.6%
- MCH (9 h): 21 pg
- MCHC (9 h): 32.4%
- MCV (9 h): 65 fL
- Mono (9 h): 2%
- Neu (9 h): 15.8%
- PT (9 h): 14.7 s
- Plat (9 h): 120.3 x10_4/uL
- RBC (9 h): 626.4 x10_4/ul
- Ret (9 h): 9%
- WBC (9 h): 65.5 x10_2/uL
- KIDNEY_L (9 h): 0.9 g
- KIDNEY_R (9 h): 0.9 g
- KIDNEY_TOTAL (9 h): 1.7 g
- LIVER (9 h): 7.4 g
- ALP (9 h): 1438.2 IU/L
- ALT (9 h): 35.6 IU/L
- AST (9 h): 67 IU/L
- BUN (9 h): 8.2 mg/dL
- CRE (9 h): 0.2 mg/dL
- Ca (9 h): 10.4 mg/dL
- Cl (9 h): 106.6 meq/L
- DBIL (9 h): 0.002 mg/dL
- GLC (9 h): 162.8 mg/dL
- IP (9 h): 10.2 mg/dL
- K (9 h): 3.7 meq/L
- LDH (9 h): 61.4 IU/L
- Na (9 h): 143.4 meq/L
- PL (9 h): 130.6 mg/dL
- RALB (9 h): 2.5 g/dL
- TBIL (9 h): 0.04 mg/dL
- TC (9 h): 79 mg/dL
- TG (9 h): 18.4 mg/dL
- TP (9 h): 5.3 g/dL
- gamma-GTP (9 h): 1.2 IU/L
- TERMINAL_BW (24 h): 213.5 g
- APTT (24 h): 16.3 s
- Bas (24 h): 0%
- Eos (24 h): 1%
- Fbg (24 h): 285.8 mg/dL
- Hb (24 h): 13.1 g/dL
- Ht (24 h): 40.6%
- Lym (24 h): 73.2%
- MCH (24 h): 21.2 pg
- MCHC (24 h): 32.3%
- MCV (24 h): 65.5 fL
- Mono (24 h): 3%
- Neu (24 h): 21.8%
- PT (24 h): 14.2 s
- Plat (24 h): 118.4 x10_4/uL
- RBC (24 h): 620 x10_4/ul
- Ret (24 h): 8.7%
- WBC (24 h): 87.2 x10_2/uL
- KIDNEY_L (24 h): 0.9 g
- KIDNEY_R (24 h): 0.9 g
- KIDNEY_TOTAL (24 h): 1.8 g
- LIVER (24 h): 9.6 g
- ALP (24 h): 1663.2 IU/L
- ALT (24 h): 44 IU/L
- AST (24 h): 75 IU/L
- BUN (24 h): 15.2 mg/dL
- CRE (24 h): 0.2 mg/dL
- Ca (24 h): 11 mg/dL
- Cl (24 h): 106.6 meq/L
- DBIL (24 h): 0.018 mg/dL
- GLC (24 h): 187 mg/dL
- IP (24 h): 8.3 mg/dL
- K (24 h): 4.3 meq/L
- LDH (24 h): 67.4 IU/L
- Na (24 h): 145.6 meq/L
- PL (24 h): 156.8 mg/dL
- RALB (24 h): 2.7 g/dL
- TBIL (24 h): 0.03 mg/dL
- TC (24 h): 87.8 mg/dL
- TG (24 h): 62.6 mg/dL
- TP (24 h): 5.7 g/dL
